ChEMBL document CHEMBL1146989 (Bioorg Med Chem Lett, 2006)
pIC50: −log10 of the molar value.

Target: PI3-kinase p110-alpha/p85-alpha (Homo sapiens, UniProt P42336)
Test: Inhibition of PI3 kinase p110alpha/p85-alpha complex
Type: protein-complex assay

PI3-kinase p110-alpha/p85-alpha, sequence (P27986 whole entry): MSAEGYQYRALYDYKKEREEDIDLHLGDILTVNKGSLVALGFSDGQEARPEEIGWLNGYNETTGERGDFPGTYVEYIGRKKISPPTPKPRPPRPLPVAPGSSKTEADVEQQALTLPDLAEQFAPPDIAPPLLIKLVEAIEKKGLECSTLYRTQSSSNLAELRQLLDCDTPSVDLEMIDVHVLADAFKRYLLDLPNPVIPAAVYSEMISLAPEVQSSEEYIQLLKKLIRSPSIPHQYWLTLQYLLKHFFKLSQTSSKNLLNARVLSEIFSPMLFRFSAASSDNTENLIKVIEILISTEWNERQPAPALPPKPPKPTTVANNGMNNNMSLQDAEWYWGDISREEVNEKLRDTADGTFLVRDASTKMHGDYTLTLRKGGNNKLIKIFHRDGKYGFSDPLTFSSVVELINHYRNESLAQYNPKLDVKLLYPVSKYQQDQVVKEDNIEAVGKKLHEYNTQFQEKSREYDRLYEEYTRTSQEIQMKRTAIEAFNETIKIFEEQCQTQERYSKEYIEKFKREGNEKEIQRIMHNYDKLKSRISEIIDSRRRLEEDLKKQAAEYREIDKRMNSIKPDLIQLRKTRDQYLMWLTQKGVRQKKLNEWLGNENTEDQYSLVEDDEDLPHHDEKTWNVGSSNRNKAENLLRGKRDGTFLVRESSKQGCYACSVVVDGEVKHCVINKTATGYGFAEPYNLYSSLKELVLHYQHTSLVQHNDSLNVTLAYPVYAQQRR
PI3-kinase p110-alpha/p85-alpha, sequence (P42336 whole entry): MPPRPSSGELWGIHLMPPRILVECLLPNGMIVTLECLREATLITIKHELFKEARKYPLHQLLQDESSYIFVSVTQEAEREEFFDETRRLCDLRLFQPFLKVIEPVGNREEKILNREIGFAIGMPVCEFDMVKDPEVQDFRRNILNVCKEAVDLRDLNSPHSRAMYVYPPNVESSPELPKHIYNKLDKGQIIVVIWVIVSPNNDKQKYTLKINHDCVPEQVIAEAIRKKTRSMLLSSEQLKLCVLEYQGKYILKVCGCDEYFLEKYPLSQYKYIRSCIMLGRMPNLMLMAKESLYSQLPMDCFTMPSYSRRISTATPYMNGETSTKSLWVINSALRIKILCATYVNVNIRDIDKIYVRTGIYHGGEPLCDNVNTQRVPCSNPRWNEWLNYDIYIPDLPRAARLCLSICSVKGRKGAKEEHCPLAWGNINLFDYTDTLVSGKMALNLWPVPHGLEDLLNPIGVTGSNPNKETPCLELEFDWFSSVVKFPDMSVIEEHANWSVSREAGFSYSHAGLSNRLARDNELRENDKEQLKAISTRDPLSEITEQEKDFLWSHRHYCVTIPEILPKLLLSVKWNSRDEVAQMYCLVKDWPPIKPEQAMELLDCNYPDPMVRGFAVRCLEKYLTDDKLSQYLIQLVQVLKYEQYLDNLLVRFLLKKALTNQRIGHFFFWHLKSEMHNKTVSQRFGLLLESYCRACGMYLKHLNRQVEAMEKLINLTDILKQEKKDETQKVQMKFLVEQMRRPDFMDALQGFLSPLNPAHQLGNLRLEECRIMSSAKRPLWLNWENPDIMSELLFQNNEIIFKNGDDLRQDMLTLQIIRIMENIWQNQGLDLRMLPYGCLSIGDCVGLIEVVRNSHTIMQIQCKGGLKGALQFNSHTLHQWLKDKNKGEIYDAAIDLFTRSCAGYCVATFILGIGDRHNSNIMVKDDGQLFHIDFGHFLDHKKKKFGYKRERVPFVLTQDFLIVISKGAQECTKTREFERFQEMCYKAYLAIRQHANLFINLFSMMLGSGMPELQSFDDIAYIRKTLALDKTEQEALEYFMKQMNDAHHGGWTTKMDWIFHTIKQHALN

| Compound | pIC50 |
| --- | --- |
| CN(CC(=O)O[C@@H]1CC(=O)c2coc3c2[C@@]1(C)c1ccc2c(c1C3=O)CCC2=O)c1ccc([N+](=O)[O-])c2nonc12 | 8.02 |
| COC[C@H]1OC(=O)c2coc3c2[C@@]1(C)C1=C(C3=O)C2CCC(=O)[C@@]2(C)C[C@H]1OC(=O)CN(C)c1ccc([N+](=O)[O-])c2nonc12 (stereo partly specified) | 9.15 |
| CN(C)c1ccc2c(CC(=O)O[C@@H]3CC(=O)c4coc5c4[C@@]3(C)c3ccc4c(c3C5=O)CCC4=O)cc(=O)oc2c1 | 8.72 |
| COC[C@H]1OC(=O)c2coc3c2[C@@]1(C)C1=C(C3=O)C2CCC(=O)[C@@]2(C)C[C@H]1OC(=O)Cc1cc(=O)oc2cc(N(C)C)ccc12 (stereo partly specified) | 8.00 |

More lines, in order of rising pIC50, values ahead:

| pIC50 | Compound |
| --- | --- |
| 6.16 | COC[C@H]1OC(=O)c2coc3c2[C@@]1(C)C1=C(C3=O)C2CC[C@H](OC(=O)Cc3cc(=O)oc4cc(N(C)C)ccc34)[C@@]2(C)C[C@H]1OC(C)=O (stereo partly specified) |
| 6.65 | COC[C@H]1OC(=O)c2coc3c2[C@@]1(C)C1=C(C3=O)C2CC[C@H](OC(=O)CN(C)c3ccc([N+](=O)[O-])c4nonc34)[C@@]2(C)C[C@H]1OC(C)=O (stereo partly specified) |
